The source of these data is US9775844B2, “Heterocyclic compounds and uses thereof” (Infinity Pharmaceuticals, Inc., priority 2014, dated 2017).

For series [1], the system named is post-irradiated tumors. Conditions: cited from earlier work.
The test system of series [2] is haematological malignancies. Conditions: cited from earlier work.
Series [3] deals with CCL3, CCL4, and CXCL13. The note with it: CLL; cited from earlier work.
The nature of series [4]: Human pharmacokinetic prediction based on non-human animal studies. As for the experimental part: Based on non-human animal studies, a predicted human dose to achieve exposure at the IC90 for PI3K-γ is approximately 2 mg. […] In some embodiments, the dose (e.g., a therapeutically effective dose) is about 2 mg, 1-3 mg, 1-5 mg, 1-10 mg, 0.5-20 mg, 0.1-50 mg, 0.1-75 mg, 0.5-75 mg, 1-75 mg, 0.1-100 mg, 0.5-100 mg, or 1-100 mg. In some embodiments, the dose is about 1-10 mg. In some embodiments, the dose is about 1-50 mg. In some embodiments, the dose is about 1-100 mg. In a 70 kg human, a 2 mg dose corresponds to 0.029 mg/kg.

For series [5], the target named is PI3K α (Homo sapiens (Human), UniProt P42336). The series is described as follows: PI3-Kinase Promega ADP-Glo Max assay. The class given is biochemical. For orientation: ADP-Glo first removes unused ATP, then detects ADP through luciferase.
The target in series [6] is PI3K β (Homo sapiens (Human), UniProt P42338). Description: PI3-Kinase Promega ADP-Glo Max assay. It counts as biochemical.
Series [7] concerns the target PI3K δ (Homo sapiens (Human), UniProt O00329). Description: PI3-Kinase Promega ADP-Glo Max assay. It counts as biochemical.
Description: Promega ADP-Glo Max assay kit (Cat. No. V7002) was utilized to determine IC50 values for α, β, δ and γ isoforms of human Class I PI3 kinases (Millipore). […] Reactions were incubated at room temperature for 2 hours followed by addition of 25 uL of stop solution. After a 40-minute incubation at room temperature, 50 uL of Promega detection mix was added followed by incubation for 1 hour at room temperature. Plates were then read on Envision plate reader in lunimescence mode. Data was converted to % inhibition using the following equation below:
[formula] where S is the sample luminescence, Pos is a positive control without added PI3K, Neg is the negative control without added compound. Data was then plotted as % inhibition vs compound concentration.
Series [8] has as its target PI3K γ (Homo sapiens (Human), UniProt P48736). Description: PI3-Kinase Promega ADP-Glo Max assay. The class given is biochemical.
For series [9], the target named is PI3K-δ in RAJI cells (Homo sapiens (Human), UniProt O00329). Description: RAJI p110 δ assay (PI3K-δ selective cellular assay, phospho-AKT). It counts as cell-based.
Sequence of PI3K-δ in RAJI cells (O00329 whole entry): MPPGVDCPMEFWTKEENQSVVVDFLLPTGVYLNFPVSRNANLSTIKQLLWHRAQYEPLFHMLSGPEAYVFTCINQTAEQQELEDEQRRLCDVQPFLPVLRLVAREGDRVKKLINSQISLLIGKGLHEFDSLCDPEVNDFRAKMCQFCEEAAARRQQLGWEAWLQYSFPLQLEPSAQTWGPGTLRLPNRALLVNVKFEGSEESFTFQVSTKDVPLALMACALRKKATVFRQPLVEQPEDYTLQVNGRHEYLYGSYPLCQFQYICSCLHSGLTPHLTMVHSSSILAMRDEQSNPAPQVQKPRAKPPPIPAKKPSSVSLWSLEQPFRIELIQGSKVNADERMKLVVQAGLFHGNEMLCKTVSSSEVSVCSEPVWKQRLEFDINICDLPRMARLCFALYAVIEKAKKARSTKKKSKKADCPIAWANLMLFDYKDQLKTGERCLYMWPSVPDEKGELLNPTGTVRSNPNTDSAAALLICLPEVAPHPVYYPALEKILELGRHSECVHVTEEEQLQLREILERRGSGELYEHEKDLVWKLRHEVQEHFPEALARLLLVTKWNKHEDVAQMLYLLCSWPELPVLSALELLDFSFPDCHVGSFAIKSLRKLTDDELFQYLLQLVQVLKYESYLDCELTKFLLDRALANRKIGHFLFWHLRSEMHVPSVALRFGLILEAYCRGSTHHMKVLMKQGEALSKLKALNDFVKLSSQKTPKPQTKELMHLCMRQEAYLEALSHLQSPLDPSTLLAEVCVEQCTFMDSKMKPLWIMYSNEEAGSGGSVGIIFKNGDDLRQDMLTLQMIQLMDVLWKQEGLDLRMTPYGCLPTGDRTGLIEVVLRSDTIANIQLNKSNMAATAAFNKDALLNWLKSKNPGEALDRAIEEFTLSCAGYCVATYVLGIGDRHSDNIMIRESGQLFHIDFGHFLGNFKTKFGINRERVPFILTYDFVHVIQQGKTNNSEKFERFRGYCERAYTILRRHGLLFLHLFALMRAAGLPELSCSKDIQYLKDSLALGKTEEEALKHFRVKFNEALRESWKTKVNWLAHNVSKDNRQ
Sequence of PI3K-δ in RAJI cells (P27986 whole entry partner): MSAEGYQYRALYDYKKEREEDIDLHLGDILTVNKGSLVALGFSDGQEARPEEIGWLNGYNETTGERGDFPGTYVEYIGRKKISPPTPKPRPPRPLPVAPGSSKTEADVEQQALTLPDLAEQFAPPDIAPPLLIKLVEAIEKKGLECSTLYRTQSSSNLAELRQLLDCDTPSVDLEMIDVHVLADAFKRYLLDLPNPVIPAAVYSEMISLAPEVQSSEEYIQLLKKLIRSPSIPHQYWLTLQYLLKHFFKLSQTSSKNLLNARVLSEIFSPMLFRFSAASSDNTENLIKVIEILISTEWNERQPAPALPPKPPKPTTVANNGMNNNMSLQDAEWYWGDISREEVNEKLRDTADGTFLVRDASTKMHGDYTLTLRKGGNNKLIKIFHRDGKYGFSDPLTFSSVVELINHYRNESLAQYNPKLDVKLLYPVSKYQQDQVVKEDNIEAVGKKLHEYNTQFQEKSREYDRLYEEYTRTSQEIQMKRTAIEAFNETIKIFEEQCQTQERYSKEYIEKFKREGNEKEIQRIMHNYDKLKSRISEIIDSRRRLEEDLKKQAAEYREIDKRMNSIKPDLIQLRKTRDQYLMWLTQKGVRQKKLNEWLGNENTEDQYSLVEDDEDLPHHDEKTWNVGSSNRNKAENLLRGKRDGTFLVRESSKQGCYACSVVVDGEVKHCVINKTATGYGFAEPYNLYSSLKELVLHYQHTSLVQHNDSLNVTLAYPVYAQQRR
Series [10] addresses PI3K-γ in RAW264.7 macrophages (Mus musculus (Mouse), UniProt Q9JHG7). The series is described as follows: Raw264.7 p110 γ assay (PI3K-γ selective cellular assay, C5a-stimulated phospho-AKT). The class given is cell-based.
Excerpt: Briefly, serum-starved RAW264.7 cells are stimulated with a known GPCR agonist C5a. […] Cells can be treated with test compounds prior to, simultaneously with, or subsequent to the stimulation by C5a. RAW 264.7 cells respond to the complement component fragment C5a through activation of the C5a receptor, and the C5a receptor activates macrophages and induces cell migration.
Series [11] is described as follows: Mouse pharmacokinetics, oral single and repeat dose. The class given is in vivo. Conditions: for tlast / AUC(0-t) / Cmax / Tmax / AUC(0-inf) / half-life: female C57 mice; for AUC(0-t): female, C57, mouse, po; for AUC(0-t) / Cmax / Tmax / AUC(0-inf) / half-life: plasma; for Cmax / Tmax / AUC(0-inf) / half-life: mouse. As for the experimental part:
Animals were weighed daily prior to dosing. […] On subsequent dosing days, the animals' condition was noted prior to dosing; the animals were observed within 4 hours of dosing, and at the end of the day.
Samples were collected at pre-dose 0.25, 0.5, 1, 2, 4, 6 and 24 h following the first dose on day 1 and pre-dose (trough), 0.25, 0.5, 1, 2, 4, 6 and 24 h following the final dose on day 3 Animals received a single oral dose daily for 3 consecutive days. Blood was collected by retro-orbital bleeding for all time points on day 1. All other blood sampling was collected by a cardiac puncture. Blood was collected into K2EDTA tubes and placed on wet ice. Within 15 min of collection, the sample was centrifuged at 10,000 rpm at 4° C. for 10 min in a bench top centrifuge and the plasma transferred to a new microcentrifuge tube.
A similar study was carried out using Compound 88. […] Below is a table that details the results for Compound 88: […]

Series [12] has as its system human T cells. The series is described as follows: Concanavalin A-induced model for activation of human T cells (IFN-γ). It counts as cell-based.
Series [13] addresses PI3K-α in SKOV-3 cells (Homo sapiens (Human), UniProt P42336, H1047R). Description: PI3K-α selective cellular assay (phospho-AKT). It counts as cell-based.
Series [14] has as its target PI3K-β in 786-O cells (Homo sapiens (Human), UniProt P42338). Description: PI3K-β selective cellular assay (phospho-AKT). The class given is cell-based.
Series [15] relates to LPS induced neutrophil influx in bronchoalveolar lavage fluid. The series is described as follows: LPS-induced neutrophilia, oral administration. Conditions: rat, p.o., 4 hours post-LPS challenge, dose dependent. The class given is in vivo. As for the experimental part:
(§1) This study also includes assessment of the exposure to the compounds in plasma and lung tissues.
(§2) Ref C is budesonide p.o. The compound was administered p.o. and about 1 hour later, LPS was administered intra-tracheally and plasma was collected. After about 5 hours, plasma and bronchoalveolar lavage samples were collected.

Series [16] can be described thus: Oral PK in the rat LPS studies (free plasma concentration). It counts as in vivo. Conditions: for concentration at 1.5 h / concentration at […]: plasma, po, read-out: Free Plasma Conc; for concentration at […]: 5.5h. As for the experimental part: as §1, §2
For series [17], the system named is CXCL12 induced p-AKT in polarized bone marrow derived macrophages. The series is described as follows: CXCL12-induced p-AKT induction assay in differentiated macrophages. It counts as cell-based, mouse. From the text:
Macrophage Differentiation and Polarization: Long bones from young C57B6 mice were harvested and bone marrow was extruded by gentle lavage of the bone marrow cavities with a 28 gauge needle. Red blood cells were removed using red blood cell lysis buffer (Sigma). Bone marrow cells were differentiated to macrophages using MCSF for 6 days (RPMI and 20% FCS) with one media change (with removal of all non-adherent cells) at day 3. Macrophages were polarized into MO (MCSF), M1 (MCSF, IFNγ, and LPS for 1 day), or M2 (MCSF, IL4 for 2 days).
CXCL12-Induced p-AKT Induction Assay: Polarized macrophages were lifted with Acutase, and plated at 0.5M cells per well (0.5 ml) in a deep well (2 ml) non adherant plate in polarization media for 1 hour. […] CXCL12 was added, and the cells were mixed on a plate shaker for 2 minutes. 1 ml of 37 degree FACS Lyse/fix buffer (BD bioscience) was added and the plate was mixed for 1 minute. The plates were spun and decanted and frozen at −80° C. Phospho AKT staining with anti Phospho AKT 473 PERCP labeled (Cell Signaling Technologies) was performed and measured by flow cytometry. Total cell MFI was used to calculate the effect of tested compound on CXCL12 induction of phospho AKT.

Series [18] deals with PI3K-delta (Homo sapiens (Human), UniProt O00329). The note with it: as described in Table 4 of WO2013/032591; cited from earlier work.
Sequence of PI3K-delta (O00329 whole entry, species assumed, the tested form may be a part): as the sequence (O00329 whole entry) above
Sequence of PI3K-delta (P27986 whole entry partner, species assumed, the tested form may be a part): as the sequence (P27986 whole entry partner) above
In series [19] the test system is IL-8 induced neutrophil migration. The series is described as follows: IL-8 driven murine air pouch model. Conditions: mouse air pouch; BB 0.1-3 mg/kg, AA 10-50 mg/kg.
The test system of series [20] is LLC tumor brei. The series is described as follows: LLC tumor brei model with or without cyclophosphamide (tumor growth, FACS). It counts as in vivo, mouse. The note with it: Compound BB 15 mg/kg QD PO; cyclophosphamide 50 mg/kg EOD IP.
Description: In this experiment, treatment began when tumors reached approx. 150 mm^3—around day 12. Caliper and xenogen images were monitored. Treatment groups n=13-15/group. […] Samples for FACs analysis were collected on day 23 post implant. Using FACS, cells were assayed for the level of CD11b and Gr-1.

pIC50: −log10 of the molar value. Read-outs that look alike come from different tables or passages of the source. Some results are limits rather than exact numbers.

Sequence of PI3K δ (O00329 whole entry): as the sequence (O00329 whole entry) above
Sequence of PI3K δ (P27986 whole entry partner): as the sequence (P27986 whole entry partner) above
Sequence of PI3K-γ in RAW264.7 macrophages (Q9JHG7 whole entry): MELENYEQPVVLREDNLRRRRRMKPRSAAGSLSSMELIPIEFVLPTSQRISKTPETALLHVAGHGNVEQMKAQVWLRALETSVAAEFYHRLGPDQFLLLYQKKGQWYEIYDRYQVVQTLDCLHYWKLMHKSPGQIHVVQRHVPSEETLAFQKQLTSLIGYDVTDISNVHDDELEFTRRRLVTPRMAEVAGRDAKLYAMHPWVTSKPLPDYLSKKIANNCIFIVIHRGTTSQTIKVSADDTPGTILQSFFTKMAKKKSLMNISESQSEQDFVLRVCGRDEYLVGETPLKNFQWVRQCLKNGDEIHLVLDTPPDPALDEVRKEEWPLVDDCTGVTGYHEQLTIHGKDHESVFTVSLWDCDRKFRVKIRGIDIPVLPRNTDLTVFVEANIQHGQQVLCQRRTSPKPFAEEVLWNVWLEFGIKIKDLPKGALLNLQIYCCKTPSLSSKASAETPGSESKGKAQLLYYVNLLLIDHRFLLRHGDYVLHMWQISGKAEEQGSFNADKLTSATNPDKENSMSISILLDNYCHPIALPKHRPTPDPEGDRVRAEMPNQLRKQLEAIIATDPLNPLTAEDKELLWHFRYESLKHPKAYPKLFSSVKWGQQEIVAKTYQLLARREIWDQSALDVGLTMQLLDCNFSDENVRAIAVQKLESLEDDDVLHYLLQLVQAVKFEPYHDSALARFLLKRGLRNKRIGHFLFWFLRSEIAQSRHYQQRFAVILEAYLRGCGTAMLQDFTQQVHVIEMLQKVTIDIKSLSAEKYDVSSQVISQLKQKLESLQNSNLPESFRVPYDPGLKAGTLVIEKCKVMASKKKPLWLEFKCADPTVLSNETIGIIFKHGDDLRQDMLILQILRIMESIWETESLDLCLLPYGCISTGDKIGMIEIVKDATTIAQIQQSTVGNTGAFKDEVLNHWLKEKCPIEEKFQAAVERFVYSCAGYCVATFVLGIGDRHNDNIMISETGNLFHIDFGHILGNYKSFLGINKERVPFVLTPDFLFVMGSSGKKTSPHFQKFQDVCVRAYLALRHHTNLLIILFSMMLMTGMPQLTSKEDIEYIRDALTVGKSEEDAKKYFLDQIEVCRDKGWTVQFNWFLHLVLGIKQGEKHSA
Sequence of PI3K γ (P48736 whole entry): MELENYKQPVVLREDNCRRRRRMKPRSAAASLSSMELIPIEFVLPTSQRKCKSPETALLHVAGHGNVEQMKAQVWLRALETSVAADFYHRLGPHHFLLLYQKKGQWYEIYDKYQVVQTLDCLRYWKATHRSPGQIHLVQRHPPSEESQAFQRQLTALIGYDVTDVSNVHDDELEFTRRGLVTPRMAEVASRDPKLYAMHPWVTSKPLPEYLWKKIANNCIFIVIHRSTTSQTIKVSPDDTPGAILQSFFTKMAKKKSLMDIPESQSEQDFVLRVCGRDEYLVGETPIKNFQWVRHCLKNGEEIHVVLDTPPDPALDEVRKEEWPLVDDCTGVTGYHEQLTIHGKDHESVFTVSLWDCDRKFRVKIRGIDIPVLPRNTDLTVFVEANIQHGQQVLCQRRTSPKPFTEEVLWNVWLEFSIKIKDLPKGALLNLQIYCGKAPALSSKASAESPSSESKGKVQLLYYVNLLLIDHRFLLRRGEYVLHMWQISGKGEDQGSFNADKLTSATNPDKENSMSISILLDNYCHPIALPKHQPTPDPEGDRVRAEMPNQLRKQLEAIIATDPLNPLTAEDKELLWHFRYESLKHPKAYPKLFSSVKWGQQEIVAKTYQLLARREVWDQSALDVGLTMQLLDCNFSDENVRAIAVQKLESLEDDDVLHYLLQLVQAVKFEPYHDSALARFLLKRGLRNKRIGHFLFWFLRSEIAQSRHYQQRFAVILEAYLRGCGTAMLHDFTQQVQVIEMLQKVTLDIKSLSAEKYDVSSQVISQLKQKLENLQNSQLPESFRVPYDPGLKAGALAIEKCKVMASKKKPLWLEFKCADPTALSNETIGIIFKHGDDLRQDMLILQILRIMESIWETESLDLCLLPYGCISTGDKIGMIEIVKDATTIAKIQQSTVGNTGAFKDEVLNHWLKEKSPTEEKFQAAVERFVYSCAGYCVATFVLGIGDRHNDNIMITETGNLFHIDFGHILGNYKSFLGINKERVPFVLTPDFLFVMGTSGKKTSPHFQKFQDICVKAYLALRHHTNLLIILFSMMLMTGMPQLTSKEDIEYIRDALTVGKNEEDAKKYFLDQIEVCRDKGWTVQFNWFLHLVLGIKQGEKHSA

With `c1cc(CN2CCCNCCNCCCNCC2)ccc1CN1CCCNCCNCCCNCC1` [AMD3100], the “tumor vasculogenesis and tumor regrowth” value in [1] was “blocked tumor vasculogenesis and tumor regrowth”.
For the molecule `CC[C@H](Nc1ncnc2[nH]cnc12)c1nc2cccc(F)c2c(=O)n1-c1ccccc1` [CAL-101], the “lymph node and lymphocyte response in CLL patients” value in series [2] (CLL patients) is “induces rapid lymph node reduction and redistribution of lymphocytes into the circulation”. Moreover, the “single agent clinical activity in lymphoma” value in series [2] (mantle cell lymphoma and refractory non Hodgkin's lymphoma) is given as “active in mantle cell lymphoma”. Further, the “clinical activity in CLL” value in series [2] (phase 1 trial, patients with poor prognostic characteristics) is “showed activity in CLL”. In addition, the “expression of stromal and T-cell derived factors including CCL3, CCL4, and CXCL13” value in [3] was “suppresses the expression”.
Take `C[C@H](NC(=O)c1c(N)nn2cccnc12)c1cc2cccc(C#Cc3cnn(C)c3)c2c(=O)n1-c1ccccc1` [Compound 4]: the “predicted human dose to achieve exposure at the IC90 for PI3K-γ” value in series [4] is “approximately 2 mg”.
For `Cc1c(C#Cc2cccc3nc([C@H](C)NC(=O)c4c(N)nn5cccnc45)n(-c4ccccc4)c(=O)c23)cnn1C` [Compound 88, (S)-2-amino-N-(1-(5-((1,5-dimethyl-1H-pyrazol-4-yl)ethynyl)-4-oxo-3-phenyl-3,4-dihydroquinazolin-2-yl)ethyl)pyrazolo[1,5-a]pyrimidine-3-carboxamide], the pIC50 (in general, the negative decadic logarithm of the IC50, by convention in mol/L) in [5] is 5.00 to 5.30; in series [6] it was 5.00 to 5.30; in series [7] it was 5.00 to 5.30; in [8] it was 6.30 to 7.00; in series [9] (phospho-AKT, read-out: RAJI p110 δ assay IC50), 6.30 to 7.00; in series [10] (phospho-AKT, read-out: Raw264.7 p110 γ assay IC50), 7.30 to 9.00. Further, the “PI3K δ/PI3K γ IC50 (selectivity)” value in series [8] was “X (key: V = 0.1 to 1; W = >1 to <10; X = 10 to <50; Y = 50 to <850)”. Further, the “RAJIδ/Raw264.7 γ IC50 (selectivity)” value in [10] is reported as “Y (key: V = 0.1 to 1; W = >1 to <10; X = 10 to <50; Y = 50 to <850)”. The tlast in series [11] (2 mg/kg PO NMP) stood at 8 h; in [11] (7.5 mg/kg PO NMP), 24 h; in [11] (15 mg/kg PO NMP), 24 h. Also, in series [11] (female mice, 2, 7.5, 15 mg/kg PO), the “stability in serum (unbound plasma concentration time course)” value was “good stability in serum”. For the same molecule, the AUC(0-t) in [11] (2 mg/kg, 2 mg/kg PO NMP, read-out: AUC0-8) was 3890 ng·h/mL; in series [11] (2 mg/kg, 2 mg/kg PO NMP, read-out: AUClast), 3890 ng·h/mL; in series [11] (7.5 mg/kg, 7.5 mg/kg PO NMP, read-out: AUC0-8), 15800 ng·h/mL; in series [11] (7.5 mg/kg, 7.5 mg/kg PO NMP, read-out: AUClast), 20600 ng·h/mL; in series [11] (15 mg/kg, 15 mg/kg PO NMP, read-out: AUC0-8), 34600 ng·h/mL; in series [11] (15 mg/kg, 15 mg/kg PO NMP, read-out: AUClast), 71700 ng·h/mL. The Cmax (as a rule, the peak of the concentration-time curve) in series [11] (2 mg/kg PO NMP) is 654 ng/mL; in series [11] (7.5 mg/kg PO NMP) it was 3700 ng/mL; in [11] (15 mg/kg PO NMP), 5700 ng/mL. In addition, the values for the Tmax in series [11] (2 mg/kg PO NMP), in series [11] (7.5 mg/kg PO NMP) and in [11] (15 mg/kg PO NMP) were 2 h, 1 h and 1 h, respectively. In addition, the AUC(0-inf) (commonly the area under the concentration-time curve extrapolated to infinity) in series [11] (7.5 mg/kg PO NMP) came out at 20700 ng·h/mL; in [11] (15 mg/kg PO NMP), 81200 ng·h/mL. The half-life – broadly, how long it takes for the measured level to halve – in series [11] (7.5 mg/kg PO NMP) is 2.8 h; in series [11] (15 mg/kg PO NMP), 7.9 h.
Take `CC(C)n1c([C@H](C)Nc2ncnc(N)c2C#N)cc2cccc(-c3ccc(=O)n(C)c3)c2c1=O` [Compound AA, reference compound]: in series [12], the “inhibition of IFN-γ” value is “highly selective inhibitor of IFN-γ”. For the same molecule, the gamma/delta selectivity ratio result in series [7] (IC50 against PI3K gamma divided by IC50 against PI3K delta) is listed as “greater than 50”. For the same molecule, the pIC50 in series [9] (read-out: Cellular IC50 δ) is 10.00; in series [10] (read-out: Cellular IC50 γ), 6.38; in series [13], 5.72; in series [14], 6.99; in [18], above 7.00. For the same molecule, in [15], the “neutrophil in bronchoalveolar lavage fluid (BALF)” value is reported as “reduced neutrophil”. The “Free Plasma Conc” value in series [16] (p.o. 0.2 mg/kg, 1.5h) is reported as “BLQ”. In addition, the concentration at 1.5 h was found to be 1.8 nM in [16] (p.o. 1 mg/kg, 1.5h) and 17.8 nM in [16] (p.o. 5 mg/kg, 1.5h). Besides, the concentration at […] in [16] (p.o. 1 mg/kg) worked out at 1.1 nM; in series [16] (p.o. 5 mg/kg), 4.6 nM. Also, the “IC50, CXCL12 induced p-AKT” value is “did not significantly inhibit” in series [17] (differentiated and M1 polarized macrophage); “did not significantly inhibit” in series [17] (differentiated and M2 polarized macrophage). Besides, the “IL-8 induced neutrophil migration” value in [19] is recorded as “does not inhibit IL-8 induced neutrophil migration”.
In the case of `O=P1(N(CCCl)CCCl)NCCCO1` (stereo not drawn) [cyclophosphamide, reference compound], the “tumor growth, LLC tumor brei model” value in series [20] is reported as “reduced tumor growth”.
